From PubChem BioAssay (NCI)
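96-well plates; 48 h exposure; 5 concentrations. Endpoints by linear interpolation between flanking doses. Not reached: highest tested concentration assigned. GI50 is the concentration that inhibits growth by half. TGI marks complete inhibition of growth.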

How the values were obtained:
Experiment in all cases: NCI tumour cell line growth inhibition, 48 h
RPMI-8226 leukemia = tested on: RPMI-8226 leukemia
HOP-62 NSCLC = tested on: HOP-62 NSCLC
OVCAR-5 ovarian = tested on: OVCAR-5 ovarian
PC-3 prostate = tested on: PC-3 prostate
NCI-H460 lung = tested on: NCI-H460 lung
MOLT-4 leukemia = tested on: MOLT-4 leukemia
SN12C renal = tested on: SN12C renal
SK-MEL-2 melanoma = tested on: SK-MEL-2 melanoma
CAKI-1 renal = tested on: CAKI-1 renal
BT-549 breast = tested on: BT-549 breast

| Structure (SMILES) | GI50 (RPMI-8226 leukemia) [µM] | TGI (RPMI-8226 leukemia) [µM] | GI50 (HOP-62 NSCLC) [µM] | TGI (HOP-62 NSCLC) [µM] | GI50 (OVCAR-5 ovarian) [µM] | TGI (OVCAR-5 ovarian) [µM] | GI50 (PC-3 prostate) [µM] | TGI (PC-3 prostate) [µM] | GI50 (NCI-H460 lung) [µM] | TGI (NCI-H460 lung) [µM] | GI50 (MOLT-4 leukemia) [µM] | TGI (MOLT-4 leukemia) [µM] | GI50 (SN12C renal) [µM] | TGI (SN12C renal) [µM] | GI50 (SK-MEL-2 melanoma) [µM] | TGI (SK-MEL-2 melanoma) [µM] | GI50 (CAKI-1 renal) [µM] | TGI (CAKI-1 renal) [µM] | GI50 (BT-549 breast) [µM] | TGI (BT-549 breast) [µM] |
| --- | --- | --- | --- | --- | --- | --- | --- | --- | --- | --- | --- | --- | --- | --- | --- | --- | --- | --- | --- | --- |
| COc1ccc(-n2c(C)nc3c(c(C)nn3-c3ccccc3)c2=O)cc1 | 0.108 | > 33.6 | 0.0789 | > 100 | 0.298 | > 100 | 0.0603 | > 100 | 0.0478 | > 40 | 0.196 | > 40.4 | 0.442 | > 100 | 0.516 | > 100 | 0.0461 | > 50.1 | 0.123 | 33.8 |
| CC1(C)Cc2c(Br)c(Br)c(Br)c(OCC(O)CN3CCOCC3)c2O1 (centres undefined) | 3.82 | 18.7 | 12.2 | 27.3 | 14.8 | 28.8 | 7.93 | 20.7 | 9.29 | 25.8 | 3.15 | 14.1 | 17.4 | 33.5 | 7.64 | 23.8 | 12.3 | 27.4 | 10.5 | 22.3 |
| COc1ccc(-n2c3c(c4c(CN(C)C)c(O)c(C)cc42)CCc2ccccc2C3=O)cc1 | 15.5 | 47 | 40.8 | > 100 | 35.2 | > 100 | 11.7 | 50.3 | 69.1 | > 100 | 22.9 | 65.7 | 29.6 | > 100 | 48 | > 100 | 24.5 | > 100 | 14.4 | > 100 |
| COc1ccc(-c2ccccc2)cc1-c1c(Nc2cc(Cl)cc(Cl)c2O)c(=O)c1=O | 0.957 | 2.71 | 1.56 | > 50 | 1.77 | > 50 | 1.37 | > 50 | 1.55 | > 50 | 1.78 | > 50 | 1.48 | > 50 | 1.77 | > 50 | 1.33 | 4.83 | 1.41 | 4.59 |
| COc1ccc2c(c1)C(=O)c1c-2n(CCCN2CCOCC2)c(=O)c2cc([N+](=O)[O-])ccc12 | < 0.01 | 0.147 | < 0.01 | 0.364 | < 0.01 | 0.889 | < 0.01 | > 31.9 | < 0.01 | 0.069 | < 0.01 | – | < 0.01 | 19.4 | 0.0763 | 3.95 | < 0.01 | 0.53 | < 0.01 | 0.448 |
| COc1cc2c(cc1OC)-c1c(c3ccc([N+](=O)[O-])cc3c(=O)n1CCCN)C2=O | 0.812 | 3.52 | 1.28 | 8.24 | 3.46 | 9.54 | 6.1 | 12.3 | 0.403 | 8.97 | 0.165 | 1.6 | 0.695 | 6.82 | 5.95 | 14.1 | 0.658 | 9.16 | 1.79 | 4.49 |
| Cc1ccc(C[P+](c2ccccc2)(c2ccccc2)c2ccccc2)cc1 | 0.201 | 18 | 1.55 | 6.28 | 1.93 | > 25.2 | 0.997 | > 100 | 0.76 | 6.99 | 2.44 | > 21.7 | 1.79 | 23.7 | 2.12 | > 100 | 0.486 | 17.3 | 0.671 | 14.3 |
| COc1ccc(C(=O)CC(c2ccc(OC)c(OC)c2)c2c(O)c3ccccc3oc2=O)cc1OC (centres undefined) | – | > 100 | – | > 100 | – | > 100 | – | > 100 | – | > 100 | – | > 100 | – | > 100 | – | > 100 | – | > 100 | – | > 100 |
| COc1cc(/C=C2\C(=O)Nc3ccccc32)cc(OC)c1OC | 12 | 61.5 | 22.2 | 62.3 | 29.2 | 76.2 | 18.8 | > 100 | 11.8 | > 100 | 12 | 71.3 | 20.7 | > 100 | 17.5 | 82.6 | 18.9 | > 100 | 28.7 | > 100 |
| Cc1cc(N=C2C=C(Nc3cc(C)on3)C(=O)c3ccccc32)no1 | – | > 100 | – | > 100 | – | > 100 | – | > 100 | – | > 100 | – | > 100 | – | > 100 | – | 72.5 | – | > 100 | – | 74.9 |
| CN1CCC(n2[nH]c(-c3ccccc3)c(Cc3ccccc3)c2=O)CC1 | – | > 100 | – | > 100 | – | > 100 | – | > 100 | – | > 100 | – | 89.7 | – | > 100 | – | > 100 | – | > 100 | – | > 100 |
